Test results as given in patent publication US20230023092A1, “TREATMENT OF DEPRESSION AND OTHER VARIOUS DISORDERS WITH PSILOCYBIN” (COMPASS […], priority 2019, published 2023).

Assays:
healthy subjects [1] = assay: CANTAB global composite score; type: in vivo, human; conditions: 10 mg, Day 7
Procedure: The following list of outcome measures are non-exhaustive. • a. The short-term change from Baseline (Day −1 [Visit 2]) to Day 7 (Visit 5) in cognitive measures of attention, spatial and working memory and executive function was measured by a composite score of the CANTAB Panel (Spatial Working Memory [SWM], Rapid Visual Information Processing [RVP], Paired Associates Learning [PAL]). • b. The short-term change from Baseline (Day −1 [Visit 2]) to Day 7 (Visit 5) in Social Cognition Panel scales (Pictorial Empathy Test [PET], Reading the Mind in the Eyes Test [RMET], Toronto Empathy Questionnaire [TEQ], Social Value Orientation [SVO], Scale of Social Responsibility [SSR]). • c. The change from Baseline (Day −1 [Visit 2]) to Day 28 (Visit 6) in cognitive measures of attention, spatial and working memory and executive function as measured by a composite score of the CANTAB Panel (SWM, RVP, PAL). • d. […] Dose-related differences between cognitive effects of psilocybin at Baseline (Day −1 [Visit 2]), Day 7 (Visit 5) and Day 28 (Visit 6), as measured by a composite score of the CANTAB Panel (SWM, RVP, PAL). • f. Dose-related differences between psychological effects of psilocybin at Baseline (Day −1 [Visit 2]), Day 7 (Visit 5) and Day 84 (Visit 7), as measured by Social Cognition Panel scales (PET, RMET, TEQ, SVO, SSR). • g. […]

healthy subjects [2] = assay: Positive and Negative Affect Schedule (PANAS); type: in vivo, human; conditions: for PANAS-Negative, change from baseline, Mean / PANAS-Positive, change from baseline, Mean: Post-Treatment Day 0, LS mean; for PANAS-Negative, change from baseline, Mean difference / PANAS-Positive, change from baseline, Mean difference: Post-Treatment Day 0
From the text: In some embodiments, the Positive and Negative Affect Schedule (PANAS) is used to evaluate the safety and/or efficacy of psilocybin. The PANAS measures the acute emotional drug effects and comprises 2 mood scales that measure positive and negative affect. Positive affect refers to the propensity to experience positive emotions and interact with others positively. Negative affect involves experiencing the world in a more negative way. Subjects respond to 10 questions associated with negative affect and 10 questions associated with positive affect. The questions are scaled using a 5-point scale that ranges from “slightly or not at all (1)” to “extremely (5)”. A total higher score on the positive affect questions indicates more of a positive effect while a lower score on the negative affect questions indicates less of a negative affect. In some embodiments, after treating according to the methods of the disclosure, a subject experiences a decrease in negative affect score of the PANAS, between about 5% and about 100%, for example about 5%, about 10%, about 15%, about 20%, about 25%, about 30%, about 35%, about 40%, about 45%, about 50%, about 55%, about 60%, about 65%, about 70%, about 75%, about 80%, about 85%, about 90%, about 95%, or about 100%, compared to prior to treatment. In some embodiments, after treating according to the methods of the disclosure, a subject experiences an increase in positive affect score of the PANAS, between about 5% and about 100%, for example about 5%, about 10%, about 15%, about 20%, about 25%, about 30%, about 35%, about 40%, about 45%, about 50%, about 55%, about 60%, about 65%, about 70%, about 75%, about 80%, about 85%, about 90%, about 95%, or about 100%, about 110%, about 120%, about 130%, about 140%, about 150%, about 160%, about 170%, about 180%, about 190%, about 200%, about 210%, about 220%, about 230%, about 240%, about 250%, about 260%, about 270%, about 280%, about 290%, or about 300%, or more, compared to prior to treatment.
The Positive and Negative Affects Schedule (PANAS) score was also evaluated to measure the effect of psilocybin.

## CN(C)CCc1c[nH]c2cccc(OP(=O)(O)O)c12 [Psilocybin, psilocybin]
Healthy subjects [1]
  CANTAB global composite score, effect size of difference from placebo: 0.53
Healthy subjects [1]; p value ~0.04460
  CANTAB global composite score, LS mean difference from placebo: −0.1832
Healthy subjects [2]; 25 mg, Day 0 after treatment
  PANAS negative affect, mean increase from baseline: 1.3
Healthy subjects [2]; Psilocybin 10 mg
  PANAS-Negative, change from baseline, Mean: −0.6
  PANAS-Positive, change from baseline, Mean: 0.7
Healthy subjects [2]; Psilocybin 10 mg-Placebo
  PANAS-Negative, change from baseline, Mean difference: −0.5
  PANAS-Positive, change from baseline, Mean difference: 5.7
Healthy subjects [2]; Psilocybin 25 mg
  PANAS-Negative, change from baseline, Mean: 1.3
  PANAS-Positive, change from baseline, Mean: −0.4
Healthy subjects [2]; Psilocybin 25 mg-10 mg
  PANAS-Negative, change from baseline, Mean difference: 1.9
  PANAS-Positive, change from baseline, Mean difference: −1.0
Healthy subjects [2]; Psilocybin 25 mg-Placebo
  PANAS-Negative, change from baseline, Mean difference: 1.4
  PANAS-Positive, change from baseline, Mean difference: 4.6
